# Test system: Umbilical cord derived mesenchymal stem cells (UC-MSC)
# Experiment: Test 4: induction of oxidative stress resistance (Rotenone treatment, nucleus count)
# Format: cell-based
# Settings: Rotenone 0 nM, 100 nM, 200 nM, 500 nM, 1 μM; after 48 hours; FIG. 11
# Method: (UC-MSC; Umbilical Cord derived Mesenchymal Stem Cells Wharton's Jelly (HMSC-WJ), FC-0020, LIFELINE CELL TECHNOLOGY Co., Ltd.; UC-MSC; Umbilical Cord derived Mesenchymal Stem Cells ScienCell Research Laboratories, Inc; and Umbilical Cord derived Mesenchymal Stem Cells ATCC) were conditioned with a recommended medium of each entity at 37° C. under 5% of CO2, and they were exchanged with the recommended medium of each entity or the medium of Example 1 (0.3-1×10^5 cells/well; 6 well plate). The passage was carried out every 2 to 3 days and those cells were treated with Rotenone of the following concentrations (0 nM, 100 nM, 200 nM, 500 nM, 1 μM). After 48 hours, these cells were stained with Hoechest33258 and the number of nucleus was counted using ImageXpress (Molecular Devices, LLC.).
smiles,measurement,value
C=C(C)[C@H]1Cc2c(ccc3c2O[C@@H]2COc4cc(OC)c(OC)cc4[C@@H]2C3=O)O1 [Rotenone],cell number of UC-MSC,decreases in a concentration dependent manner

# From patent US20180066231A1, “MESENCHYMAL STEM CELL CULTURE MEDIUM, METHODS FOR CULTURING MESENCHYMAL STEM CELLS, AND MESENCHYMAL STEM CELLS” (ROHTO PHARMACEUTICAL CO., LTD., priority 2015, published 2018)
